Entries after “also recorded” stand apart in the source; their conditions may differ. Where two headings read alike, the source gives them in different places. Blank lines part the entries; values can stand above or below the compound they belong to. Where a SMILES comes first, the peptide text is derived from it.
Key:
[1] = system: IIB RNA; assay: UV melting analysis of IIB RNA and cRev-IIB complex; type: physicochemical, HIV-1; settings: 260 nm; cRev/IIB ratio 1; IIB RNA only as control
Experimental: UV melting experiments for free RNA (2 μM) and a protein-RNA complex (1:1 molar ratio) were conducted using an Agilent 8453 diode array UV-Vis spectrophotometer equipped with a Peltier temperature controller. Spectra were measured at 260 nm using a cuvette with a path length of 1 cm under the heating rate condition of 2° C./min. The measurement was repeated 3 times and the average was taken. Prior to the measurement, the RNA sample was heated at 90° C. for 2 minutes and then annealed on ice. The melting temperature (Tm) was calculated with the Origin software (OriginLab, USA) using a two-state or multi-state model.
A complex (cRev-IIB complex) was prepared by mixing the cRev prepared in Preparation Example 2 with IIB RNA and UV melting experiment was performed. The cRev/IIB ratio was 1. For the control group (IIB RNA only), only IIB RNA was used without cRev.

[2] = CD spectroscopy of cell-penetrating peptides (helicity); settings: for secondary structure / helix stabilization by CD: 10 mM potassium phosphate, pH 7.4, 20° C.
Experimental: The concentration of peptides/proteins was 5-20 μM in general. Spectra were obtained using a Jasco J-1500 CD spectrometer (JASCO, Japan) or a Chirascan CD spectrometer (Applied Photophysics, UK). Scanning was carried out using a cuvette with a path length of 1 mm. MRE (mean residue ellipticity) was calculated per amino acid residue.
The cell-penetrating peptides (CPP1 TO 13 and CPP11d) were dissolved respectively in 10 mM potassium phosphate. The analysis was performed under the condition of pH 7.4 and 20° C.

[3] = system: HeLa cells; assay: Cytotoxicity analysis with WST-8 reagent; settings: 24 hours, various concentrations
Experimental: (§3) Cytotoxicity was analyzed using the WST-8 (5-(2,4-disulfophenyl)-3-(2-methoxy-4-nitrophenyl)-2-(4-nitrophenyl)-2H-tetrazolium, water-soluble tetrazolium). First, HeLa cells were inoculated onto a 96-well plate (5,000 cells/well) and cultured for 24 hours in a DMEM medium containing 10% FBS. After washing with PBS, the peptide (sample) of various concentrations was added to Opti-MEM. 24 hours later, the WST-8 reagent was added and incubation was conducted for 1 hour. Then, WST-8 formazan was quantified using a Victor X5 multilabel plate reader (Perkin Elmer, USA).

[4] = system: BALB/c nude mice; assay: In-vivo fluorescence imaging (IVIS) of living mice, targeting
Experimental: All animal experimental procedures including sample administration and euthanasia were performed in accordance with the strict guidelines of the Yonsei University Health System Institutional Animal Care and Use Committee. Female 7-week BALB/c nude mice were purchased from Orient Bio Company (Korea). Fluorescence-labeled peptide (sample) (10 mg/kg) was injected via the lateral tail vein of the mice. Fluorescence images were acquired at different times (0, 4, 8 and 12 hours) using an in-vivo imaging system (IVIS; PerkinElmer, USA) and the images were analyzed with the Living Image software (PerkinElmer).
Female 7-week-old BALB/c nude mice were injected IV (intravenously) with the cell-penetrating peptide prepared in Example 10 (CPP10) at 10 mg/kg or 1 mg/kg via the lateral tail vein and imaged using IVIS (in-vivo imaging system) (PerkinElmer, USA) 4 hours later. The images were analyzed with the Living Image software (PerkinElmer). The mice were analyzed from the top, bottom (belly) and side positions (FIG. 44A). Then, after administering the same volume of the cell-penetrating peptide prepared in Example 10 (CPP10) at 10 mg/kg via IV (intravenous) or IP (intraperitoneal) injection, the mice were imaged 4 hours later (FIG. 44B).
Next, female 7-week-old BALB/c nude mice were injected IV (intravenously) with the cell-penetrating peptide of Example 10 (CPP10), the cell-penetrating peptide of Example 11 (CPP11) or the cell-penetrating peptide of Example 14 (CPP11d) at 10 mg/kg via the lateral tail vein, and they were imaged 30 minutes and 6 hours later using IVIS (in-vivo imaging system) (PerkinElmer, USA). The images were analyzed with the Living Image software (PerkinElmer) (FIG. 44C). In FIGS. 44A and 44B, the cell-penetrating peptides were labeled with TAMRA (5 (6)-carboxytetramethylrhodamine). In FIG. 44C, the cell-penetrating peptides were labeled with FAM.
The images were analyzed with the Living Image software (PerkinElmer) (FIGS. 50 and 51).
The cell-penetrating peptide prepared in Example 11 (CPP11) was also administered at the same concentration and then analyzed by IVIS 1 hour later (FIG. 51). The cell-penetrating peptide was used after labeling with FAM.
4 hours later, the mice were imaged using IVIS (in-vivo imaging system) (PerkinElmer, USA) and the images were analyzed with the Living Image software (PerkinElmer) (FIG. 53).
The cell-penetrating peptide prepared in Example 11 (CPP11) was also administered at the same concentration and then analyzed by IVIS 1 hour later (FIG. 53). The cell-penetrating peptide was used after labeling with FAM.
Female 7-week-old BALB/c nude mice were injected IV (intravenously) with 200 μL of the cell-penetrating peptide of Example 11 (CPP11) or the existing cell-penetrating peptides (Rev ARM, Tat, penetratin and R8) at 5 mg/kg via the lateral tail vein. 4 hours later, the mice were imaged using IVIS (in-vivo imaging system) (PerkinElmer, USA) and the images were analyzed with the Living Image software (PerkinElmer) (FIGS. 54 and 55). The cell-penetrating peptides were used after labeling with FAM.

[5] = system: HeLa cells; assay: Flow cytometry cellular uptake efficiency, HeLa; type: cell-based
Experimental: (§1) After washing with PBS, the cells were treated with the fluorescence-labeled peptide (sample) for 4 hours. Then, after washing twice with PBS, the cells were incubated with trypsin (1 mg/mL) for 15 minutes and the peptide bound to the cell surface was removed. The cells were centrifuged at 1,200 rpm for 5 minutes, washed twice with PBS and then suspended in a PBS buffer containing 10% non-enzymatic cell dissociation solution. The fluorescence intensity of the internalized peptide was measured using a BD LSR II flow cytometer (BD Biosciences, USA).
(§2) The cell-penetrating peptides (CPP10, CPP11 and Tat) were labeled with FAM (5 (6)-carboxyfluorescein) at the N-terminal. MFI stands for mean fluorescence intensity. Untreated cells were used as control groups (cell only). The cellular uptake efficiency refers to the degree of penetration into cells.
Flow cytometry was performed after treating Hela cells with the cell-penetrating peptide prepared in Example 11 (CPP11) of different concentrations (4 μM, 30 μM, 60 μM, 90 μM, 120 μM, 270 μM and 500 μM).

[6] = system: 293T cells; assay: Flow cytometry cellular uptake efficiency, 293T; type: cell-based; settings: 30 μM, FAM-labeled
Experimental: as §1, §2

[7] = system: HCT116 cells; assay: Flow cytometry cellular uptake efficiency, HCT116; type: cell-based; settings: HCT116, 30 μM, FAM-labeled
Experimental: as §1, §2

[8] = CD equilibrium thermal unfolding; type: physicochemical; settings: CD at 4-84° C., two-state coil-helix transition
Experimental: For the cell-penetrating peptide prepared in Example 11 (CPP11), CD spectra were measured under various temperature conditions (4° C., 20° C., 36° C., 52° C., 68° C. and 84° C.) to analyze thermal stability through equilibrium thermal unfolding.

[9] = system: HeLa cells; assay: Cellular localization by CLSM; type: cell-based; settings: 10 μM FAM-labeled, 2 hours, DAPI
Experimental: A DMEM medium containing 10% FBS and an 8-well Lab-Tek II chamber slide (Thermo Fisher Scientific, USA) were prepared. […] […] The cultured cells were washed 5 times with PBS. The living cells were visualized using an LSM 880 confocal microscope (Carl Zeiss, Germany).
The cell-penetrating peptides were labeled with FAM.

[10] = system: BALB/c nude mice; assay: IVIS imaging of extracted organs, head and cochlea after IV injection; type: in vivo
Experimental: After extracting major organs (ear, brain, heart, lung, liver, spleen and kidney) from the euthanized experimental animals, the tissues were imaged using IVIS (in-vivo imaging system) (PerkinElmer, USA) and the images were analyzed with the Living Image software (PerkinElmer).

[11] = system: HeLa cells
Experimental: as §3

[12] = FAM-labeled, IV 10 mg/kg, 30 minutes and 6 hours
[13] = extracted organs, IV 10 mg/kg, 4 hours

Compound: GGACCUGGUAUGGGCGCAGCGCAAGCUGACGGUACAGGCCAGGUCC (listed as RNA, chemistry not given here) [IIB RNA, stem-loop IIB region of HIV-1 RRE RNA]
Tm (UV melting) [1]: 60.6 °C

in-vivo targeting site [4, 12]: targeted the ear
Compound: C[C@H](NC(=O)[C@H](CCC(N)=O)NC(=O)C(C)(C)NC(=O)[C@H](C)NC(=O)C(C)(C)NC(=O)[C@H](CC(N)=O)NC(=O)[C@H](CCCNC(=N)N)NC(=O)[C@H](CCCNC(=N)N)NC(=O)[C@H](C)NC(=O)[C@H](CCC(N)=O)NC(=O)C(C)(C)NC(=O)[C@H](C)NC(=O)C(C)(C)NC(=O)[C@H](CC(N)=O)NC(=O)[C@H](CCCNC(=N)N)NC(=O)[C@H](CCCNC(=N)N)NC(=O)[C@H](C)NC(=O)[C@H](CCC(N)=O)NC(=O)C(C)(C)NC(=O)[C@H](C)NC(=O)C(C)(C)N)C(=O)N[C@@H](CCCNC(=N)N)C(=O)N[C@@H](CCCNC(=N)N)C(=O)N[C@@H](CC(N)=O)C(=O)NC(C)(C)C(=O)N[C@@H](C)C(=O)NC(C)(C)C(N)=O [CPP10] (HELM PEPTIDE1{[Aib].A.[Aib].Q.A.R.R.N.[Aib].A.[Aib].Q.A.R.R.N.[Aib].A.[Aib].Q.A.R.R.N.[Aib].A.[Aib].[am]}$$$$V2.0; N-terminus assumed)
secondary structure / helix stabilization by CD [2]: significantly higher than those of CPP8 and CPP9
cytotoxicity (WST-8) [3]: hardly show cytotoxicity
targeting efficiency IV versus IP ([4]; TAMRA-labeled, 10 mg/kg, 4 hours): higher targeting efficiency when administered by IV injection rather than by IP injection
in-vivo fluorescence distribution ([4]; TAMRA-labeled, IV tail vein, 10 mg/kg or 1 mg/kg, 4 hours): bright fluorescence was observed in the ear
cell-penetrating ability compared with Tat ([5]; HeLa, 30 μM, FAM-labeled): significantly superior
cell-penetrating ability compared with Tat [6]: significantly superior
cell-penetrating ability compared with Tat [7]: significantly superior

melting temperature (CD thermal unfolding) [8]: 39.4 °C
secondary structure / helix stabilization by CD [2]: perfect α-helical structure
dependence of [θ]222/[θ]208 on concentration ([2]; 5-200 μM, 20° C.): not affected by concentration
time to accumulation in the ear ([10]; IV 10 mg/kg): ≤ 4 h
accumulation rate in the brain [10, 13]: very low
main target organ [10, 13]: targets mainly the ear
in-vivo targeting site [4, 12]: targeted the ear
Compound: C[C@H](NC(=O)[C@H](CCC(N)=O)NC(=O)C(C)(C)NC(=O)[C@H](C)NC(=O)C(C)(C)NC(=O)[C@H](CC(N)=O)NC(=O)[C@H](CCCNC(=N)N)NC(=O)[C@H](CCCNC(=N)N)NC(=O)[C@H](C)NC(=O)[C@H](CCC(N)=O)NC(=O)C(C)(C)NC(=O)[C@H](C)NC(=O)C(C)(C)NC(=O)[C@H](CC(N)=O)NC(=O)[C@H](CCCNC(=N)N)NC(=O)[C@H](CCCNC(=N)N)NC(=O)[C@H](C)NC(=O)[C@H](CCC(N)=O)NC(=O)C(C)(C)NC(=O)[C@H](C)NC(=O)C(C)(C)NC(=O)[C@H](CC(N)=O)NC(=O)[C@H](CCCNC(=N)N)NC(=O)[C@H](CCCNC(=N)N)NC(=O)[C@H](C)NC(=O)[C@H](CCC(N)=O)NC(=O)C(C)(C)NC(=O)[C@H](C)NC(=O)C(C)(C)N)C(=O)N[C@@H](CCCNC(=N)N)C(=O)N[C@@H](CCCNC(=N)N)C(=O)N[C@@H](CC(N)=O)C(=O)NC(C)(C)C(=O)N[C@@H](C)C(=O)NC(C)(C)C(N)=O [CPP11] (HELM PEPTIDE1{[Aib].A.[Aib].Q.A.R.R.N.[Aib].A.[Aib].Q.A.R.R.N.[Aib].A.[Aib].Q.A.R.R.N.[Aib].A.[Aib].Q.A.R.R.N.[Aib].A.[Aib].[am]}$$$$V2.0; N-terminus assumed)
cellular localization [9]: mainly located outside the nucleus
excretion route ([10]; IV 10 mg/kg, 4 hours): excreted out of the body through the liver and kidneys
accumulation in the head (outside and inside) ([10]; IV 10 mg/kg, 4 hours, versus PBS, 10 mg/kg): accumulated effectively in the facial area, especially in the ear, in large quantities; also recorded: accumulated deeply not only in the ear but also in the nose
accumulation in heart, lung and spleen [10, 13]: not accumulated in the heart, lung and spleen tissues
accumulation in the inner ear (cochlea) ([10]; separated cochlea, IV, versus PBS (w/o treatment)): significantly remarkable accumulation in the inner ear (cochlea)
cytotoxicity (WST-8) [3]: hardly show cytotoxicity
accumulation efficiency in the ear ([4]; FAM-labeled, IV 5 mg/kg, 1 hour, compared with CPP14, 15 and 17): much higher accumulation efficiency in the ear
bioaccumulation ([4]; FAM-labeled, IV 5 mg/kg, 4 hours, comparison with existing CPPs): accumulated in the ear tissue at a significantly high level
cellular uptake efficiency relative to Tat ([5]; HeLa, 30 μM, 4 hours, FAM-labeled, MFI): ≥ 4 times
MFI / uptake efficiency versus concentration ([5]; Hela cells, 4-500 μM): uptake efficiency increases gradually with the concentration
cellular uptake efficiency relative to Tat ([6]; 4 hours, MFI): ≥ 4 times
cellular uptake efficiency relative to Tat ([7]; 4 hours, MFI): ≥ 4 times

secondary structure / helix stabilization by CD [2]: perfect left-handed helical conformation
in-vivo targeting site ([4]; mouse, in vivo, iv, 10 mg/kg): targeted the ear
Compound: UaUgarrnUaUqarrnUaUqarrnUaUqarrnUaU [CPP11d]
cytotoxicity (WST-8) [11]: hardly show cytotoxicity

Reference: patent US20240368230A1, “CELL-PENETRATING PEPTIDES COMPRISING MULTIPLE 5-MER ALPHA-HELIX FRAGMENTS AND USES THEREOF” (ArtProBio Co., Ltd., priority 2023, published 2024)
